Measurements taken from patent US20240197742A1, “Therapeutic Combinations of a CD19 Inhibitor and a BTK Inhibitor” (Acerta Pharma B.V., priority 2015, published 2024).
Entries after “also recorded” stand apart in the source; their conditions may differ.

Columns and labels:
Th17 cells = assay: Th17 development from enriched CD4+ T cells; format: cell-based; details: anti-TCRβ plus anti-CD28, skewing cytokines, 4 days
Protocol: Enriched CD4^+ T cells are plated on 24-well culture dishes that have been precoated 2 hr with 250 μL anti-TCRβ (0.5 μg/mL) plus anti-CD28 (5 μg/mL) at 37° C. in PBS. The cells are then supplemented with media containing BTK inhibitors along with the skewing cytokines as indicated in the following. The Th17 and Treg cultures are grown for 4 days before analysis. The cells are maintained for an additional 3 days with skewing cytokines (Th17; 20 ng/mL IL-6, 0.5 ng/mL TGF-β, 5 μg/mL IL-4, 5 μg/mL IFN-γ and Treg; 0.5 ng/mL TGF-β, 5 μg/mL IL-4, 5 μg/mL IFN-γ) and are supplemented with IL2 as a growth factor.

NK cells [1] = assay: Antibody-dependent NK cell-mediated IFN-γ release (ELISA); format: cell-based, human; details: 1 μM; trastuzumab-coated (10 μg/mL) HER18, 4 hours
Protocol: (§1) All in vitro experiments were performed in triplicate.
Cytokine secretion was determined as follows. […] NK cells from healthy donors were enriched as described above and then added to the target cells and incubated for 4 hours at 37° C. Triplicate cultures were performed on NK cells from donors. After incubation, supernatants were harvested, centrifuged briefly, and then analyzed for interferon-γ using an enzyme-linked immunosorbent assay (ELISA) (R&D Systems, Minneapolis, MN, USA).

human platelets = assay: Laser injury thrombus formation in VWF HA1 mice infused with human platelets; details: 0.1 μM, 0.5 μM, or 1 μM
Protocol: Injury to the vessel wall of arterioles ([…] diameter) was performed using a pulsed nitrogen dye laser (440 nm, Photonic Instruments) applied through a 20× water-immersion Olympus objective (LUMPlanF1, 0.5 numerical aperture (NA)) of a Zeiss Axiotech vario microscope. […] The extent of thrombus formation was assessed for 2 minutes after injury and the area (μm^2) of coverage determined (Image IQ, Andor Technology).
The BTK inhibitor-treated human platelets were fluorescently labeled and infused continuously through a catheter inserted into the femoral artery.

CD8+ T cells = assay: CD8+ T cell viability; format: cell-based; details: anti-TCR and anti-CD28 coated wells, neutral conditions, 4 days
Protocol: Total T cells were plated on anti-TCR and anti-CD28 coated wells in the presence of both BTK inhibitors. Neutral culture conditions were used that will not polarize T cells to a helper lineage. […] Statistical significance was calculated using the Mann Whitney T-test.

CYP3A4 = CYP3A4 (Homo sapiens, UniProt P08684); assay: Loss of parent drug as catalyzed by CYPs; format: in vitro ADME; details: in vitro
Sequence of CYP3A4 (P08684 whole entry): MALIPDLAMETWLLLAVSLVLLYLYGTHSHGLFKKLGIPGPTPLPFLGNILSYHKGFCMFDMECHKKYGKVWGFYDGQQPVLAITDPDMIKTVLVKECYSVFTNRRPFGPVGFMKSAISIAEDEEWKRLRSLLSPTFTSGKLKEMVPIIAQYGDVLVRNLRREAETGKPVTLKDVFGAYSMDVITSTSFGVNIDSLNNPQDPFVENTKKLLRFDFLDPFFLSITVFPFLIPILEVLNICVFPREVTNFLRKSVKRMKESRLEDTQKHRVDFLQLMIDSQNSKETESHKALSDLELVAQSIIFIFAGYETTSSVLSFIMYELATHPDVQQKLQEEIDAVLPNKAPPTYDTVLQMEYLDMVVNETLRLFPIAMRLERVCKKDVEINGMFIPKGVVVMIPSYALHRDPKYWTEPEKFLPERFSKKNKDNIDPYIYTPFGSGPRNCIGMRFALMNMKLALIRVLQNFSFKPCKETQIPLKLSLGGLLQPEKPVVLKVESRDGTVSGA
Source text: No unique human metabolite was identified. Preliminary evaluations of metabolism in the plasma, bile, and urine of rats, dogs, and monkeys indicated metabolic processes of oxidation, glutathione binding, and hydrolysis.

[2] = test system: 80 known pharmacologic targets such as G-protein-coupled receptors, nuclear receptors, proteases, and ion channels; assay: Binding assays with 80 known pharmacologic targets; details: screened at 10 μM
[3] = test system: BCR activation markers CD69 and CD86; assay: In vivo potency: expression of BCR activation markers after IgM stimulation; details: mice gavaged, 3 hours post-dose, BCR stimulated with IgM; versus Formula (10)
Protocol: Mice were gavaged at increasing drug concentration and sacrificed at one time point (3 hours post-dose). BCR is stimulated with IgM and the expression of activation markers CD69 and CD86 are monitored by flow cytometry to determine EC50 values.
CD86 and CD69 are cell surface proteins that are BCR activation markers. […] BCR was stimulated with IgM and the expression of activation marker CD69 and CD86 are monitored by flow cytometry to determine EC50 values.

NK cells [4] = assay: Antibody-dependent NK cell-mediated degranulation (CD107a); format: cell-based, human
Protocol: as §1
Lytic granule release was determined as follows. NK cells from healthy donors were enriched and cultured in the presence of target cells, monoclonal antibodies and test articles as described above. After 4 hours, the cultures were harvested and cells were pelleted, washed, and then stained for flow cytometry evaluation. Degranulation was evaluated via by flow cytometery by externalization of CD107a, a protein normally present on the inner leaflet of lytic granules, and gating on NK cells (CD3-CD16^+ lymphocytes). The percentage of CD107α positive NK cells was quantified by comparison with a negative control (isotype control, unstained cells/FMO). Control cultures (NK cells cultured without target cells, or NK, target cell co-cultures in the absence of appropriate monoclonal antibody) were also evaluated; all experiments were performed in triplicate.

[5] = test system: KPC derived mouse pancreatic cancer cells; assay: Orthotopic pancreatic cancer model; format: in vivo; details: Formula (2) 15 mg/kg/BID given orally
Protocol: In this study, KPC derived mouse pancreatic cancer cells (KrasG12D;Trp53R172H;Pdx1-Cre) were injected into the pancreases.
Single cell suspensions from tumor samples. Mouse tumor tissue was collected and stored in PBS/0.1% soybean trypsin inhibitor prior to enzymatic dissociation. Samples were finely minced with a scissors and mouse tissue was transferred into DMEM containing 1.0 mg/mL collagenase IV (Gibco), 0.1% soybean trypsin inhibitor, and 50 U/ml DNase (Roche) and incubated at 37° C. for 30 min. with constant stirring while human tissue was digested in 2.0 mg/ml collagenase IV, 1.0 mg/ml hyluronidase, 0.1% soybean trypsin inhibitor, and 50 U/ml DNase for 45 minutes. Suspensions were filtered through a 100 micron filter and washed with FACS buffer (PBS/0.5% BSA/2.0 mM EDTA) prior to staining. Two million total cells were stained with antibodies as indicated. Intracellular detection of FoxP3 was achieved following permeabilization with BD Perm Buffer III (BD Biosciences) and eBioscience Fix/Perm respectively. Following surface staining, samples were acquired on a BD Fortessa and analyzed using FlowJo (Treestar) software.

[6] = test system: pancreatic cancer (KPC mice); assay: KPC pancreatic cancer model; format: in vivo
Protocol: The KPC mouse model recapitulates many of the molecular, histopathologic, and clinical features of human disease (Westphalen and Olive, Cancer J. 2012, 18, 502-510). Combination therapy with gemcitabine was also evaluated in this model. Mice were enrolled after identification of spontaneously appearing tumors in the pancreas that were ≥100 mm^3 (as assessed by high-resolution ultrasonography).

NSCLC (KrasLA2) = assay: KrasLA2 non-small cell lung cancer model; format: in vivo, mice; details: dosing of 15 mg/kg
Source text: The model is designed to have sporadic expression in single cells of G12D mutant Kras off its own promoter triggered by spontaneous intrachromosomal recombination. Johnson, et al. Nature 2001, 410, 1111-16. While the mutant Kras protein is expressed in a few cells in all tissues, tumor development is seen only in the lung at high penetrance.

[7] = Formula (2) 15 mg/kg BID orally

SMILES: CC#CC(=O)N1CCC[C@H]1c1nc(-c2ccc(C(=O)Nc3ccccn3)cc2)c2c(N)nccn12 [Formula (2), (S)-4-(8-amino-3-(1-(but-2-ynoyl)pyrrolidin-2-yl)imidazo[1,5-α]pyrazin-1-yl)-N-(pyridin-2-yl)benzamide]
- effect on Th17 cells / Th17 development (Th17 cells): no adverse effect
- inhibition of trastuzumab-stimulated NK cell cytokine release (NK cells [1]): no inhibitory effect
- effect on human platelet-mediated thrombus formation (human platelets): does not interfere with thrombus formation; also recorded: no significant effect
- effect on CD8+ T cell viability (CD8+ T cells): not observed; also recorded: no effect
- metabolism by CYPs (CYP3A4): metabolized by CYP3A4
- activity in binding assays [2]: significant activity only against the A3 adenosine receptor
- in vivo potency at inhibiting expression of activation markers CD69 and CD86 [3]: more potent
- inhibition of trastuzumab-stimulated NK cell degranulation (NK cells [4]; 1 μM, trastuzumab-coated (10 μg/mL) HER18, 4 hours): no inhibitory effect
- reduction of rituximab-stimulated NK cell degranulation (NK cells [4]; rituximab-coated (10 μg/mL) DHL-4, 4 hours): < 2%
- tumor burden [5]: reduction in tumor burden
- CD8+ cells in tumor tissues [6, 7]: significant increase
- immunosuppressive MDSCs (Gr1+Ly6CHi) in tumor tissues [6, 7]: significantly reduced
- immunosuppressive TAMs (CD11b+Ly6ClowF4/80+Csf1r+) in tumor tissues [6, 7]: significantly reduced
- immunosuppressive Tregs (CD4+CD25+FoxP3+) in tumor tissues [6, 7]: significantly reduced
- survival at day 14 [6, 7]: 6/6
- survival at day 28 [6, 7]: 5/6
- tumor volume, day 28 average ([6]; Formula (2) 15 mg/kg BID orally (N=6), day 28): 272 mm^3
- tumor volume, predose average ([6]; cohort treated with Formula (2) 15 mg/kg BID orally (N=6), predose): 165 mm^3
- immunosuppressive tumor associated MDSCs (NSCLC (KrasLA2)): significant reduction
- immunosuppressive tumor associated TAMs (NSCLC (KrasLA2)): significant reduction
- immunosuppressive tumor associated Tregs (NSCLC (KrasLA2)): significant reduction
- number of tumors (NSCLC (KrasLA2)): fewer overall tumors
- tumor volumes versus vehicle (microCT) (NSCLC (KrasLA2)): significant decrease
